# According to patent publication US12247033B2, “Triazole-substituted imidazo[1,2-a]pyrimidines as cGAS inhibitors” (GlaxoSmithKline Intellectual Property Development Limited, priority 2022, dated 2025):
# Counter-ions that a name gives are not always drawn.
# Key:
# [1] = FaSSIF solubility (Fasted State Simulated Intestinal Fluid); format: physicochemical; conditions: thermodynamic from solid, FaSSIF pH 6.5, 4 h equilibration at room temperature, dynamic range 1-1000 μg/mL
# Description: 1 mL of FaSSIF buffer (3 mM sodium taurocholate, 0.75 mM lecithin in sodium phosphate buffer at pH 6.5) was added to manually weighed 1 mg of the solid compound in a 4 mL vial. […] The residual solid was removed by filtration. The supernatant solution was quantified by HPLC-UV using single point calibration of a known concentration of the compound in DMSO. The dynamic range of the assay was 1-1000 μg/mL.
# CGAS = CGAS whole blood cytokine release assay (384-well, BacMam stimulation, IP-10 by cytometric bead array); format: cell-based; conditions: Homo sapiens, 6 h; read-out: hWB pXC50 (converted)
# Summary of the method: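 Heparinised human donor whole blood mixed with serially diluted compound plus Null BacMam stimulus, incubated 6 h at 37° C, 5% CO2. Supernatant IP-10 quantified by cytometric bead array on flow cytometer (488 nm excitation, 585/40 nm emission); inhibition of IP-10 calculated.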
# human CGAS (157-522) = human CGAS (157-522) (Homo sapiens, UniProt Q8N884); assay: biochemical;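 also: biochemical enzyme reaction, 2′3′-cGAMP product measured by RapidFire mass spectrometry (MRM) normalised to c-di-UMP internal standard, inhibition of product formation relative to high and low control wells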
# Chain of human CGAS (157-522) (Q8N884 157-522): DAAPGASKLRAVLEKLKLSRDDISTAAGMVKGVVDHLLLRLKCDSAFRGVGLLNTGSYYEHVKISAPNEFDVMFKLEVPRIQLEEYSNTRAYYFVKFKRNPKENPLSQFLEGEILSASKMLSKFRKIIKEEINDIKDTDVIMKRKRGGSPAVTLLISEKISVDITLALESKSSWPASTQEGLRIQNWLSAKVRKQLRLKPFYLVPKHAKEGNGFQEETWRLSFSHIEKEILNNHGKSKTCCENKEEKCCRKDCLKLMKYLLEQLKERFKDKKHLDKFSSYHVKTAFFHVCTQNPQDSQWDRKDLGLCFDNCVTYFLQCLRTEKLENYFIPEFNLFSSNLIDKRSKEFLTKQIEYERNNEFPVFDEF
# Description: Compounds were serially diluted 2, 3, or 4-fold in neat DMSO to generate 11-point dose response curves and then 250 nL compound or DMSO solution was transferred to Greiner 384-well V-bottom assay plates (Catalog #781280) using an Echo acoustic dispenser (Labcyte). A solution of 150 μM ATP, 150 μM GTP, 20 μM pppGpA (GTP-2′5′-AMP, custom synthesis from ChemGenes), and 10 μg/mL sheared salmon sperm DNA (Sigma, Catalog #D1626) in assay buffer (20 mM Trizma, pH 7.5, 10 mM magnesium chloride, 0.3 mM CHAPS, and 0.01% (w/v) bovine serum albumin) was added to columns 1-17, 19-24 of the plate at 12.5 μL/well using a Combi liquid handler (ThermoFisher). A 12.5 μL/well low control solution containing 150 μM ATP, 150 μM GTP, 20 μM pppGpA in assay buffer was added to column 18 using the Combi. A 12.5 μL/well solution of 10-100 nM human CGAS (157-522) in assay buffer was then added to all wells of the plate using the Combi. […] Reactions were quenched by added 50 μL/well of 0.5% (v/v) trifluoroacetic acid (TFA) in mass spectrometry grade deionized water containing 5 μM cyclic-di-UMP (ci-di-UMP; Invivogen Catalog #tlrl-cdu) as the internal standard (IS). Plates were centrifuged for 1 min and then quenched reactions were analyzed using a RF-MS 300 system operating in a Multiple Reaction Monitoring (MRM) detection mode.
# Samples (10 μL injection volume) were passed over a silica C18/type C solid phase extraction (SPE) cartridge for analyte (2′3′-cyclic guanosine monophosphate adenosine monophosphate (2′3′-cGAMP), product of biochemical reaction)/pppGpA/c-di-UMP IS adsorption. Adsorbed samples were desalted for 3000 ms using a 100% water eluent A/desalting solution. Afterwards, desalted samples were eluted using a 0.5% TFA in 20%/80% acetonitrile/water eluent B/elution solution directly into either a Sciex 4000, 5000 or 5500 triple quadrupole mass spectrometer (QQQ-MS) for MRM analyte/IS detection. QQQ-MS detection conditions were as follow: scan type: MRM; curtain (CUR) gas: 30 psi; nebulizer (GS1) gas: 50 psi; drying (GS2) gas: 60 psi; collisionally activated dissociation (CAD) gas: 12 relative setting; precursor ion (Q1) masses: 2′3′-cGAMP: m/z 675.1 Da/pppGpA: m/z 853.0 Da/c-di-UMP: m/z 613.1 Da; fragment ion (Q3) masses: 2′3′-cGAMP: m/z 524.1 Da/pppGpA: m/z 702.0 Da/c-di-UMP: 307.1 Da; declustering potentials (DPs): 2′3′-cGAMP: +81 V/pppGpA: +85 V/c-di-UMP: +85 V; entrance potential: +10 V (all analytes); collision energies (CEs): 2′3′-cGAMP: +33 V/pppGpA: +36 V/c-di-UMP: +35 V; collision cell exit potential (CXP): +10 V (all analytes); interface heater (Sciex 4000/5000 only): on; Q1 resolution: unit (all analyte); Q3 resolution: unit (all analytes). The area under the curve (AUC) for all analytes was obtained using the RapidFire Integrator software application to calculate AUC-2′3′-cGAMP/AUC-c-di-UMP intensity ratio. Percent product formation was calculated by comparison to column 6 (high control)/column 18 (low control) responses. The % product inhibition was calculated as follows:
# [formula] where A is the minimum response, B is the maximum response, C is the log10*XC50, D is the slope factor, and x is the log10 compound concentration [M] in ABASE XE.
SMILES,solubility at 4 h [1] [µg/mL],IC50 (CGAS) [nM],IC50 (human CGAS (157-522)) [nM]
"CNCC(=O)OCc1cccnc1N(C)C(=O)OC(C)n1cncc1-c1c(-c2nc(C(F)(F)F)n[nH]2)nc2ncccn12 (stereo not drawn) [Example 25, {2-[methyl({[1-(5-{2-[3-(trifluoromethyl)-1H-1,2,4-triazol-5-yl]imidazo[1,2-a]pyrimidin-3-yl}-1H-imidazol-1-yl)ethoxy]carbonyl})amino]pyridin-3-yl}methyl 2-(methylamino)acetate, hydrochloride salt]",> 1000,316,25.1
"CC(C)[C@H](N)C(=O)OCn1cnc(-c2c(-c3nc(C(F)(F)F)nn3COC(=O)[C@@H](N)C(C)C)nc3ncccn23)c1 [Example 24, (4-{2-[1-({[(2S)-2-amino-3-methylbutanoyl]oxy}methyl)-3-(trifluoromethyl)-1H-1,2,4-triazol-5-yl]imidazo[1,2-a]pyrimidin-3-yl}-1H-imidazol-1-yl)methyl (2S)-2-amino-3-methylbutanoate, 2 trifluoroacetic acid salt]",324,–,63.1
"O=P(O)(O)OCn1nc(C(F)(F)F)nc1-c1nc2ncc(F)cn2c1-c1cnc[nH]1 [Example 34, ({5-[6-fluoro-3-(1H-imidazol-5-yl)imidazo[1,2-a]pyrimidin-2-yl]-3-(trifluoromethyl)-1H-1,2,4-triazol-1-yl}methoxy)phosphonic acid]",> 1000,–,794
"FC(F)(F)c1n[nH]c(-c2nc3ncccn3c2-c2c[nH]cn2)n1 [Example 1, 5-[3-(1H-imidazol-4-yl)imidazo[1,2-a]pyrimidin-2-yl]-3-(trifluoromethyl)-1H-1,2,4-triazole]",4,158,–
"CNCCOC(=O)OCn1cnc(-c2c(-c3nc(C(F)(F)F)nn3COC(=O)OCCNC)nc3ncccn23)c1 [Example 27, [4-(2-{1-[({[2-(methylamino)ethoxy]carbonyl}oxy)methyl]-3-(trifluoromethyl)-1H-1,2,4-triazol-5-yl}imidazo[1,2-a]pyrimidin-3-yl)-1H-imidazol-1-yl]methyl 2-(methylamino)ethyl carbonate, 2 trifluoroacetic acid salt]",298,158,–
"FC(F)(F)c1n[nH]c(-c2nc3ncc(OC4CCOC4)cn3c2-c2cnc[nH]2)n1 (stereo not drawn) [Example 161, 5-[3-(1H-imidazol-5-yl)-6-(oxolan-3-yloxy)imidazo[1,2-a]pyrimidin-2-yl]-3-(trifluoromethyl)-1H-1,2,4-triazole]",–,251,5.01
"FC(F)(F)c1n[nH]c(-c2nc3ncc(OCC4CCOC4)cn3c2-c2c[nH]cn2)n1 (stereo not drawn) [Example 135, 5-[3-(1H-imidazol-4-yl)-6-[(oxolan-3-yl)methoxy]imidazo[1,2-a]pyrimidin-2-yl]-3-(trifluoromethyl)-1H-1,2,4-triazole]",–,631,3.16
"Brc1n[nH]c(-c2nc3nc4c(cn3c2-c2cnc[nH]2)CCO4)n1 [Example 57, 11-(3-bromo-1H-1,2,4-triazol-5-yl)-12-(1H-imidazol-5-yl)-6-oxa-1,8,10-triazatricyclo[7.3.0.0^3,^7]dodeca-2,7,9,11-tetraene]",–,63.1,5.01
"FC(F)(F)COc1cnc2nc(-c3nc(C(F)(F)F)n[nH]3)c(-c3cnc[nH]3)n2c1 [Example 160, 5-[3-(1H-imidazol-5-yl)-6-(2,2,2-trifluoroethoxy)imidazo[1,2-a]pyrimidin-2-yl]-3-(trifluoromethyl)-1H-1,2,4-triazole]",–,398,5.01
"FC(F)(F)c1n[nH]c(-c2nc3nc4c(cn3c2-c2cnc[nH]2)CNCC4(F)F)n1 [Example 83, 13,13-difluoro-6-(1H-imidazol-5-yl)-5-[3-(trifluoromethyl)-1H-1,2,4-triazol-5-yl]-2,4,7,11-tetraazatricyclo[7.4.0.0^3,^7]trideca-1,3,5,8-tetraene]",–,316,7.94
